Row | Structure (SMILES) | melting point [°C]
1 | Cc1cc2c(c(C(=O)O)c1)OCC2 | 177 to 179
2 | C=C(C)C(=O)N[C@@H](CCC(=O)O)C(=O)O | 128 to 130
3 | Cn1c2ccc(C(=O)c3ccccc3)cc2c2cc(C(=O)c3ccccc3)ccc21 | 222
4 | CC(S(N)(=O)=O)S(=O)(=O)N1CCCC1 (stereo unspecified) | 78 to 80
5 | CC(C)C(NC(=O)N(C)Cc1nc2ccccc2[nH]1)C(=O)NN(C(=O)OCc1cccnc1)C(Cc1ccccc1)CC(O)CCc1ccccc1 (stereo unspecified) | 110 to 114
6 | O=C(c1ccccc1)c1[nH]c2cc(Cl)ccc2c1NC(=O)N1CCOCC1 | 168 to 170
7 | O=C(N[C@@H](CSc1ccc(C(F)(F)F)cc1[N+](=O)[O-])C(=O)O)OCc1ccccc1 | 150 to 153
8 | CCCCc1nc2cscc2[nH]1 | 118
9 | CCC1(c2cccc(O)c2)CNCC(C)O1 (stereo unspecified) | 75 to 105
10 | O=C(Cn1sc2ccccc2c1=O)N1CCN(C(=O)Oc2ccc([N+](=O)[O-])cc2)CC1 | 114 to 118
11 | CCCc1nc2c(N)nc3ccccc3c2n1CCCC(=O)OCC | 154 to 156
12 | O=C(O)CC1(S)C2CC3CC(C2)CC1C3 (stereo unspecified) | 178 to 180
13 | CC1(C)OCc2cc(Cc3c[nH]cn3)ccc2O1 | 150 to 170
14 | N#Cc1cc2c(nc1Cl)CCCCC2 | 126 to 127
15 | CCCCC[C@H]1CC[C@H](COc2ccc(C(=O)C(F)(F)F)cc2)CC1 | 60
16 | COc1cc(OC)c2c(=O)c3oc4cc(OC)ccc4c3oc2c1 | 272 to 274
17 | O=C(c1ccc(C2CCCCC2)cc1)c1ccccn1 | 44 to 45
18 | CCCC(C)C(=O)Oc1c(I)cc(I)cc1I (stereo unspecified) | 66 to 68
19 | COc1cc2nc(O)nc(O)c2c(OC)c1OC | > 250
20 | CCOC(=O)Cc1ccc2c(c1)sc1ccc(Cl)cc12 | 88 to 90
21 | CCCc1c(OCCCCCOc2ccc3oc(C(=O)O)cc3c2)ccc2c1OCCC2=O | 192 to 195
22 | CN1CCN(C2=Nc3cc(Cl)c(Cl)cc3Nc3nn(C)nc32)CC1 | 218
23 | CC1(C)CC(=O)C(c2c(Cl)cc([N+](=O)[O-])cc2Cl)C(=O)C1 | 288 to 290

Row | Structure (SMILES) | melting point [°C]
24 | CC(=O)NC[C@H]1CN(c2ccc(C3CCOCC3)cc2)C(=O)O1 | 185 to 187
25 | O=[N+]([O-])c1ccc(N2CCN3CCC2CC3)nc1 | 143 to 146
26 | CSc1n[nH]c(NC(=O)c2ccccc2O)n1 | 306 to 309
27 | Cc1c(C(=O)CCl)csc1C(=O)CCl | 155 to 156
28 | ClC(=NNc1ccccc1)c1ccc(Cl)c(Cl)c1 | 121 to 124
29 | NS(=O)(=O)c1cc2cc(C=O)sc2o1 | 165 to 167
30 | CC1Cc2ccc([Si](C)(C)C)c(S(N)(=O)=O)c2S1(=O)=O (stereo unspecified) | 171 to 172
31 | c1ccc(CCc2nc(COc3ccc(CCCn4ccnc4)cc3)co2)cc1 | 67 to 68
32 | NC(=S)NCc1ccco1 | 80 to 91
33 | CCOC(=O)c1ncn2c1[C@@H]1CCN1C(=O)c1c-2ccc(F)c1F | 234 to 236
34 | COc1cc(OC)cc(C2CCCCC2=CC(=O)O)c1 (stereo unspecified) | 154 to 156
35 | Clc1ccc2nc(-c3cccnc3)[nH]c2c1 | 244 to 246
36 | C[C@H](c1ccccc1)N1C(=O)N[C@@H]2C(=O)OC[C@@H]21 | 123 to 125
37 | CC(=O)NC[C@H]1CN(c2ccc3c(c2)CC(C)N3CCF)C(=O)O1 (stereo partly specified) | 127 to 130
38 | O=C(Cc1ccncc1)NC(Cc1csc2ccccc12)C(=O)CCc1cc(C(F)(F)F)cc(C(F)(F)F)c1 (stereo unspecified) | 184 to 187
39 | CC(C)(C)OC(=O)NCCNC(=O)c1nc(Cl)sc1Br | 142 to 144
40 | Cc1c(=O)[nH]c(=O)n2ccsc12 | > 230
41 | CC(C)OC(=O)c1cc(NC(=O)C(C)(C)C)c(F)cc1Cl | 81 to 83
42 | O=[N+]([O-])c1cc(Cl)cc2c(Cl)ccnc12 | 149 to 164
43 | CNc1ccccc1C(=O)COC(=O)c1ccccc1 | 85 to 87
44 | COc1ccc2[nH]cc(C=C[N+](=O)[O-])c2c1 | 151 to 152
45 | C[C@]1(COC(=O)N2CCc3cc(Cl)ccc32)Cn2cc([N+](=O)[O-])nc2O1 | 189 to 191
46 | CC(=O)N1CCC(CC(=O)O)CC1 | 124

Row | Structure (SMILES) | melting point [°C]
47 | CNC1=NS(=O)(=O)N=C1NCCSCc1ccc(CN(C)C)s1 | 60.5 to 66
48 | CC(C)c1nc2cc(NC(=O)c3c(C(=O)N4CC(F)C4)cnn3C)ccn2n1 | 226 to 227
49 | CC1(C)OC(=S)Nc2ccc(-c3csc(C#N)c3)cc21 | 242 to 243
50 | NS(=O)(=O)c1ccccc1S(N)(=O)=O | 250
51 | COC(=O)c1cc2sccc2s1 | 96 to 97
52 | CC(C)c1c(S(=O)(=O)c2ccc(O)cc2)cnn1C | 209 to 210
53 | COc1cc2c3ccc(OC)c(OC)c3n(S(C)(=O)=O)c2cc1OC | 164 to 165
54 | COc1ccc2oc(Cc3cccnc3)c(CCNC(C)=O)c2c1 | 117
55 | Sc1nccn1Cc1cccs1 | 130 to 131
56 | Cc1ccc(-c2ccc3c(c2)C=C(C(=O)Nc2ccc(CN(C)C4CCOCC4)cc2)CCC3)cc1 | 161 to 162
57 | OCCN1CCn2c1nc1ccccc12 | 158 to 160
58 | Cc1nc(N2CCN(Cc3ccc(F)c(F)c3)C2=O)sc1C(N)=O | 221 to 223
59 | Fc1cccc2c(CCc3ccsc3)ccnc12 | 96 to 97
60 | CCOC(=O)C1=C(CC)NC(CC)=C(C(=O)OCC)C1c1ccccc1/C=C/C(=O)OC(C)(C)C | 154 to 155
61 | C=C1c2cc(F)ccc2OC12CCN(C(C)=O)CC2 | 114 to 116
62 | CN1C(=O)c2ccccc2OC1C(Cl)(Cl)Cl (stereo unspecified) | 82 to 84
63 | CCOc1cc(C2c3cccc(C4CC4C(N)=O)c3C(=O)N2CCS(C)(=O)=O)ccc1O (stereo unspecified) | 296
64 | CCn1c(=O)c2c(nc(/C=C/c3cc(OC)c4c(c3)OCO4)n2C)n(CC)c1=O | 202
65 | O=C(Nc1ccc(Cl)c(C(F)(F)F)c1)c1ccccc1[N+](=O)[O-] | 165 to 169
66 | CCCCCCCCCCCCCCCCCC(O)c1ccc(Cl)c(C(=O)O)c1 (stereo unspecified) | 106 to 107
67 | Cc1nccnc1NCCN1CCC(NC(=O)c2cc(Cl)c(N)c3c2OC(C)(C)C3)CC1 | 163

More lines, now with the values ahead:

Row | melting point [°C] | Structure (SMILES)
68 | 248 to 249 | COc1cc2c(cc1Br)-c1c(-c3cccs3)c3c(n1CC2)C(=O)N(C(C)C)CCN(C(=O)C(C)C)C3
69 | 220 to 222 | O=C(O)COc1ccc(-c2c3ccccc3cc3sc4cc(OCC(=O)O)ccc4c23)cc1
70 | > 150 | CCCCN(Cc1ccc(-c2ccccc2S(=O)(=O)NC(=O)c2ccccc2Cl)cc1)C(=O)Oc1ccccc1C(F)(F)F
71 | 144 | CCCC(=O)c1cnc2c(OC)nccc2c1Nc1ccccc1C
72 | 253 to 254 | CS(=O)(=O)c1ccc(-c2nn(Cc3ccncc3)c(=O)cc2-c2ccc(F)cc2)cc1
73 | 153 to 154 | CC(C)(Oc1ccc(CCC(=O)c2ccc(-c3ccc(C(F)(F)F)cc3)s2)c(Cl)c1Cl)C(=O)O
74 | 65.4 to 66.5 | CCCCCCCCCCCOc1ccc(-c2ccc(OCC(C)OC(=O)CC(C)C)cc2)cc1 (stereo unspecified)
75 | 158 to 159 | COc1ccc(-c2c3ccc(OC)cc3cc3sc4ccccc4c23)cc1
76 | 129 to 131 | COc1ccccc1SCc1c(C(C)C)nc(C(C)C)c(CO)c1-c1ccc(F)cc1
77 | 109 to 110 | CCOC(=NC(=O)c1ccc(F)cc1)N1Cc2ccccc2-c2ccccc2C1
78 | 282 to 284 | Cc1c(-c2ccc(O)cc2)sc(C#N)c1-c1ccc(O)cc1
79 | 130 to 132 | CC(C)Oc1cccc(CC(=O)OCc2c(-c3ccccc3)c3cc(Cl)ccc3c(=O)n2C)c1
80 | 112 | CC(C)c1ccc(S(=O)(=O)n2c(CO)cc3cc(C(F)(F)F)ccc32)cc1
81 | 144 to 146 | CC(C)CC1(CC(C)C)CCc2c(OCc3ccc4ccccc4n3)cccc2C1O (stereo unspecified)
82 | 202 to 203 | COc1ccc(N2C(=O)[C@@H](N3C(=O)c4ccccc4C3=O)[C@H]2/C=C/c2ccccc2)cc1 (relative stereo)
83 | 116 to 119 | COC(=O)c1cc(-c2cccc(C3=NC(C)(C)Cc4cc(OC)c5c(c43)CC(C)(C)O5)c2)ccc1NC(C)=O
84 | 192 to 194 | COc1ccc(C2(c3ccc(N(C)C)cc3)OC(=O)c3cc(N(C)C)ccc32)c(OC)c1 (stereo unspecified)

Row | melting point [°C] | Structure (SMILES)
85 | 133 to 134 | CNc1nc(C(C)c2ccc(-c3ccccc3)c(F)c2)c(C(=O)O)s1 (stereo unspecified)
86 | 266 | CC(C)(C)c1ccc2ncc(C(=O)NCc3ccc(Cl)cc3)c(O)c2c1
87 | 84.5 to 85.5 | COC(=O)COc1cccc2c(CNS(=O)(=O)CCCCCc3ccccc3)coc12
88 | > 250 | CC(C)n1nc(-c2c(Nc3ccccc3)nc(N)nc2-c2ccc(F)cc2)ccc1=O
89 | 185 to 186 | Cc1c(Cc2ccc(C(C)C)cc2)c2c(c(C)c1NC(=O)CC(C)(C)C)C(C)CO2 (stereo unspecified)
90 | 53 to 55 | CC(=NOCc1ccccc1)C(C)Oc1ccccc1NC(=O)c1cccnc1Cl (stereo unspecified)
91 | 70 to 71 | CSc1ccc2c3c(cccc13)C(=O)N2C(C)C
92 | 130 to 131 | CCOC(=O)/C=C/c1nc(COc2ccc(COc3nn(-c4ccccc4)cc3/C=C/P(=O)(OCC)OCC)cc2OC)c(C)o1
93 | 151 to 154 | CCOC(=O)c1ccc(NC(=O)C=C(c2ccc(C)cc2)c2ccc(C)cc2)cc1
94 | 125 to 127 | COc1cn(C(c2ccccc2)c2ccccc2)c(=O)o1
95 | 268 to 269 | COC(=O)Nc1nc(-c2ccccc2)c(-c2nc3ccccc3c(=O)n2-c2cccc(C)c2)s1
96 | 194 to 196 | Oc1ccc2nc(-c3ccc(O)c4ccccc34)oc2c1
97 | 272 to 274 | COC1(c2ccc(C(C)C)cc2O)C(=O)c2ccccc2C1=O
98 | 123 to 125 | COc1ccccc1CC(=O)Nc1cc(Cl)c(Cl)cc1[N+](=O)[O-]
99 | 190 to 192 | CC1(C)CC(=O)c2c(SCc3ccccc3)cn(-c3ccccn3)c2C1
100 | 166 to 169 | COc1ccc(C(=O)Nc2ccc(F)c(F)c2)cc1Nc1cccc(C(F)(F)F)c1
101 | 85 | CN(CCOc1cccc(Cl)c1CN)Cc1ccccc1
